Measurements as given in patent US9096643B2, “Cell-protective peptides and uses thereof” (priority 2010, dated 2015).
No end group written: not given here.

Legend:
[1] = tested on: neonatal rat CMs (heart cells); test: Heart cell attachment on peptide-modified Az-chitosan coated coverslips (brightfield cell counts); assay type: cell-based, rat (Sprague-Dawley); details: coated glass coverslips, 1, 3 and 5 days of incubation, FIG. 1
Protocol: Neonatal (1 to 2 day-old) Sprague-Dawley rats were euthanized according to the procedure approved by the University of Toronto Committee on Animal Care. […] The supernatant from 5 collagenase digests of the tissues was collected and centrifuged at 750 rpm (94 g) for 4 min, resuspended in culture medium and pre-plated into T75 flasks (Falcon) for 1 hour to separate the non-adherent cells (enriched CMs) from the adherent cells (non-myocytes). The enriched CMs were used in the studies. The CM culture medium consisted of Dulbecco's Modified Eagle Medium (DMEM) with 4.5 g/L glucose, 4 mM L-glutamine, 10% certified fetal bovine serum (FBS), 100 U/mL penicillin, 100 μg/mL streptomycin, and 10 mM 4-2-hydroxyethyl-1-piperazineethanesulfonic acid buffer (HEPES, Gibco/Invitrogen).
The surfaces used for microscopy analysis were created on circular 12 mm diameter glass coverslips (VWR). These were plasma treated (WS-400BZ-6NPP/Lite, Laurell Technologies) for 30 s. […]
The day before cells were ready to be seeded, the surfaces in the 12-well plates were sterilized by germicidal UV illumination overnight. […]
Brightfield images were taken with 10× magnification of surfaces with cells (N=3) to visualize the morphology and cell attachment (IX81, Olympus). […] The number of cells was then counted using the cell counting plug-in on ImageJ (NIH version 1.36b).

[2] = tested on: neonatal rat CMs (heart cells); test: Live/dead (CFDA/PI) staining of heart cells on coated surfaces; assay type: cell-based, rat (Sprague-Dawley); details: one and three days of incubation, FIG. 2
Protocol: The day before cells were ready to be seeded, the surfaces in the 12-well plates were sterilized by germicidal UV illumination overnight. The PBS surrounding the surfaces was then aspirated off and 100,000 live cells were pipetted onto each surface in 100 μL of culture media. These surfaces were left in the incubator for 20 to 30 min to allow the cells to begin to adhere, and then supplemented with 1 mL of warm CM media. The cells were cultivated for 8 days, with 100% culture media change every 2-3 days. The initial seeding density of heart cells on peptide-chitosan coated surfaces was 88 cells/mm^2. […] Each type of surface was created in triplicate.
Live dead staining was performed using 5-carboxyfluorescein diacetate acetoxymethly ester (CFDA, Invitrogen), which stains live cells green, and with propidium iodide (PI, Invitrogen), which stains dead cells red, according to the manufacturer's instruction. The samples were incubated in 10 μM of CFDA and 75 μL/mL of PI in PBS for 45 min at 37° C. Three different surfaces were analyzed for each type of sample (N=3) and a total of five images were taken for each surface to get a full representation of the viability of the cells on a surface. In order to quantify the viability, the numbers of live and dead cells were counted separately using the cell counter plug-in on ImageJ.

[3] = tested on: Rat neonatal cardiomyocytes; test: Doxorubicin induced apoptosis and caspase activation (Western blot); assay type: cell-based; details: 1 d, doses as low as 5 μM, FIG. 5B,C
Protocol: Rat neonatal cardiomyocytes were given doxorubicin (Dox) to induce apoptosis and PBS or peptide QHREDGS (1 d), Western blotting was conducted and levels assessed via densitometric analysis (Scion Image software).

[4] = tested on: human iPS cells BJ1D; test: iPS cell dose-response, CFDA-Live/PI-Dead live cell count; assay type: cell-based; details: 50 μM soluble peptide, passage 5, vs PBS, p=0.028, FIG. 10
Protocol: The human iPS cells (BJ1D and 0901B) were obtained from the Ontario iPSC Facility and used following the hiPS cell research guidelines of the University of Toronto as described by Hotta et al. Nat. Protoc. 4, 1828-1844 (2009)), unless specified otherwise. Cells were cultured on a feeder layer of MEF cells (Mount Sinai Hospital Toronto, inactivated with 10 μg/ml mitomycin C and seeded at 1.8×10^5 per 3.5 cm dish). For single cell cultures, hiPS cell colonies were dissociated in 0.25% Trypsin-EDTA (Invitrogen) for 5 min, followed by trituration with a pipette. To ensure a single-cell suspension, the dissociated cells were passed through a 40 μm cell strainer (BD Falcon) and seeded onto MEF plates at 10 cells/ml, 10 cm plates. Cells were allowed to grow for 7 days and the total number of colonies was counted. […] Cells were analyzed after 5 passages in continuous treatment with 50 μM QHREDGS, 50 μM DGQESHR, or PBS, unless specified otherwise.
Human iPS cells were treated for 5 passages and stained for CFDA-Live/PI-Dead as described in Rask et al. J. Biomed. […] Live cells were counted using the cell counter plug in for ImageJ Immunohistochemistry was performed as described above (Rask et al., ibid). […]
To determine the optimal concentration of QHREDGS for iPSC expansion, a dose-response experiment was performed. […] Live cells were counted using the cell counter plug in for ImageJ.

Substance | cell adhesion / cell attachment to coated surface [1] | cell viability (live/dead) [2] | activation of caspases-3 and -6 [3] | number of viable human iPS cells [4]
Az-chitosan-QHREDGS: QHREDGS peptide covalently conjugated to Az-chitosan by EDC chemistry (also: covalently conjugated to Az-chitosan by EDC chemistry, site not given here) | significantly greater cell adhesion | significantly greater cell viability | – | –
QHREDGS (angiopoietin 1 peptide) | – | – | blocked | significant increase
